In one test the test system is A2780 cells. Nature of the test: In-vitro cell proliferation assay (SRB), A2780 cells. To be noted: A2780 cells, 72 hours, read-out: A2780 IC50. Format: cell-based. Summed up: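 SRB read-out: 6% TCA fix 1 h at 4° C., stain, Tris solubilize, A570. Media-only background subtracted; % inhibition from two compound concentrations.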
The next test deals with T1, NAMPT (Homo sapiens, UniProt P43490).
T1 construct: His tag; host or cells: E. coli
The experiment in a line: Biochemical inhibition assay: NAMPT enzymatic reaction, NMN quantified by mass spectrometry. To be noted: read-out: Biochem IC50. Summed up:
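Inhibition of E. coli-expressed His-tagged human NAMPT, measured as NMN formation by mass spectrometry after a 30 min room-temperature reaction containing 1 μM NAM, 100 μM PRPP and 2.5 mM ATP.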

Setting [1] is: Homo sapiens, A2780, 72 h, SRB assay.

Structures are written as SMILES. Like-named read-outs stand apart in the source and are kept apart here.

T1 sequence (P43490 whole entry): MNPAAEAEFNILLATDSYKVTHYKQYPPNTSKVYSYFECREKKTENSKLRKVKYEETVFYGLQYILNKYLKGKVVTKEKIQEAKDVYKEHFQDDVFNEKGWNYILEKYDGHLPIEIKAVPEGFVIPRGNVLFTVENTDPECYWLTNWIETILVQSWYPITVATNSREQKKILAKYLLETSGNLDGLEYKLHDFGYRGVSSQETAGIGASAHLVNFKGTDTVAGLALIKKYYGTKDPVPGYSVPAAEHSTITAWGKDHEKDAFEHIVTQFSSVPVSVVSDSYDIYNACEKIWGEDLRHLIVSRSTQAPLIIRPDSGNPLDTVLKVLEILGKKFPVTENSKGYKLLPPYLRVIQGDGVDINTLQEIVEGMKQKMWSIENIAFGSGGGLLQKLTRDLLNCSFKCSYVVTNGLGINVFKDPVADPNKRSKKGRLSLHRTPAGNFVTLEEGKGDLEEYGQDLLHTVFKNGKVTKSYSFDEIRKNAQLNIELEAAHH

By IC50 is commonly meant the concentration that gives 50% inhibition. In the case of `O=C(NCc1ccc(S(=O)(=O)c2cnc3ccc(Cl)cn23)cc1)c1ccc2nccn2c1` [N-[(4-{6-chloroimidazo[1,2-a]pyridine-3-sulfonyl}phenyl)methyl]imidazo[1,2-a]pyridine-6-carboxamide], the IC50 amounted to 0.4 nM in the test with A2780 cells (Homo sapiens, A2780, 72 h, SRB) and 5.3 nM on NAMPT (NAMPT enzymatic assay).

With `Cc1cccc(S(=O)(=O)c2ccc(CNC(=O)c3cc4ccncc4o3)cc2)c1F` [N-({4-[(2-fluoro-3-methylbenzene)sulfonyl]phenyl}methyl)furo[2,3-c]pyridine-2-carboxamide], the IC50 was 7.9 nM with A2780 cells (Homo sapiens, A2780, 72 h, SRB) and 6.3 nM on NAMPT (NAMPT enzymatic reaction).

Consider `Cc1cc(C(F)(F)F)ccc1S(=O)(=O)c1ccc(CNC(=O)c2cc3ccncc3s2)cc1`, for which the IC50 in the test with A2780 cells (Homo sapiens, A2780, 72 h, SRB) came to 24.2 nM; on NAMPT (NAMPT enzymatic assay), 10.3 nM.

As for `O=C(NCc1ccc(S(=O)(=O)c2cc(Cl)cc(Cl)c2)cc1)c1cc2ccncc2s1` [N-({4-[(3,5-dichlorobenzene)sulfonyl]phenyl}methyl)thieno[2,3-c]pyridine-2-carboxamide], the results for the concentration for half-maximal inhibition (IC50) in the test with A2780 cells (setting [1]) and at NAMPT (NAMPT enzymatic reaction) were 0.7 nM and 6 nM, respectively.

`CCOc1ccc(S(=O)(=O)c2ccc(CNC(=O)c3cnc4[nH]ncc4c3)cc2)cc1`: the half-inhibitory concentration (IC50) stood at 8.4 nM in the test on A2780 cells (Homo sapiens, A2780, 72 h, SRB) and 15.1 nM at NAMPT (NAMPT enzymatic reaction).

For the compound `O=C(Nc1ccc(CNC(=O)c2cc3cnccc3[nH]2)cc1)c1ccccc1` [N-[(4-benzamidophenyl)methyl]-1H-pyrrolo[3,2-c]pyridine-2-carboxamide], the concentration for half-maximal inhibition (IC50) with A2780 cells (setting [1]) stood at 4 nM; on NAMPT (NAMPT enzymatic reaction) it was 19 nM.

Take `O=C(NCc1ccc(S(=O)(=O)c2ccc(-c3ccccc3)cc2)cc1)c1cc2cc(O)ccc2[nH]1`: the half-inhibitory concentration (IC50) in the test with A2780 cells (Homo sapiens, A2780, 72 h, SRB) lay within 1000 to 10000 nM; on NAMPT (NAMPT enzymatic reaction), 100 to 1000 nM.

In the case of `COc1ccc(S(=O)(=O)c2ccc(CNC(=O)c3cnc4nccn4c3)cc2)c(C)c1`, the IC50 with A2780 cells (Homo sapiens, A2780, 72 h, SRB) amounted to 67.9 nM; on NAMPT (NAMPT enzymatic reaction), 2.4 nM.

In the case of `CC(C)CNC(=O)c1cccc(S(=O)(=O)c2ccc(CNC(=O)c3cnc4nccn4c3)cc2)c1`, the IC50 in the test on A2780 cells (Homo sapiens, A2780, 72 h, SRB) was 45.6 nM; at NAMPT (NAMPT enzymatic assay) it was 7 nM.

On to `Cc1ccc(C)c(S(=O)(=O)c2ccc(CNC(=O)c3cc4cnccc4[nH]3)cc2)c1` [N-({4-[(2,5-dimethylbenzene)sulfonyl]phenyl}methyl)-1H-pyrrolo[3,2-c]pyridine-2-carboxamide], for which the IC50 in the test on A2780 cells (setting [1]) was 14 nM; on NAMPT (NAMPT enzymatic reaction), 11 nM.

Consider `COc1cc(OC)cc(S(=O)(=O)c2ccc(CNC(=O)c3cnc4[nH]ncc4c3)cc2)c1`, for which the IC50 came to 2.2 nM with A2780 cells (Homo sapiens, A2780, 72 h, SRB) and 2.6 nM at NAMPT (NAMPT enzymatic reaction).

In the case of `COc1ccc(S(=O)(=O)c2ccc(CNC(=O)c3cc4cnccc4[nH]3)cc2)cc1` [N-({4-[(4-methoxybenzene)sulfonyl]phenyl}methyl)-1H-pyrrolo[3,2-c]pyridine-2-carboxamide], the IC50 in the test with A2780 cells (setting [1]) came out at 9 nM; at NAMPT (NAMPT enzymatic reaction) it was 11 nM.

In the case of `CCOCc1ccc(S(=O)(=O)c2ccc(CNC(=O)c3cc4ccncc4o3)cc2)cc1`, the IC50 with A2780 cells (Homo sapiens, A2780, 72 h, SRB) was found to be 6.6 nM; at NAMPT (NAMPT enzymatic assay), 4.9 nM.

Turning to `O=C(NCc1ccc(S(=O)(=O)c2ccc(N3CCCC3)cc2)cc1)c1ccc2nccn2c1`, the IC50 was determined as 1.4 nM with A2780 cells (Homo sapiens, A2780, 72 h, SRB) and 3 nM at NAMPT (NAMPT enzymatic assay).

Take `O=C(NCc1ccc(S(=O)(=O)c2ccccc2)cc1)c1nc2cnccc2[nH]1` [N-{[4-(benzenesulfonyl)phenyl]methyl}-1H-imidazo[4,5-c]pyridine-2-carboxamide]: the half-inhibitory concentration (IC50) in the test with A2780 cells (setting [1]) turned out to be 5370 nM; at NAMPT (NAMPT enzymatic reaction), 7060 nM.

For the compound `Cc1cc(C)c(S(=O)(=O)c2ccc(CNC(=O)c3cc4cnccc4[nH]3)cc2)c(C)c1` [N-({4-[(2,4,6-trimethylbenzene)sulfonyl]phenyl}methyl)-1H-pyrrolo[3,2-c]pyridine-2-carboxamide], the IC50 turned out to be 46 nM in the test with A2780 cells (Homo sapiens, A2780, 72 h, SRB) and 76 nM on NAMPT (NAMPT enzymatic assay).

Consider `O=C(NCc1ccc(S(=O)(=O)c2cc(Cl)cc(CO)c2)cc1)c1cc2ccncc2s1`, for which the values for the half-maximal inhibitory concentration (IC50) with A2780 cells (SRB) and at NAMPT were 0.8 nM and 3.3 nM, respectively.

In the case of `O=C(NCc1ccc(S(=O)(=O)c2cnn(-c3cccc(Cl)c3)c2)cc1)c1cnc2[nH]ncc2c1` [N-({4-[1-(3-chlorophenyl)-1H-pyrazole-4-sulfonyl]phenyl}methyl)-1H-pyrazolo[3,4-b]pyridine-5-carboxamide], the IC50 with A2780 cells (Homo sapiens, A2780, 72 h, SRB) was found to be 55.6 nM; at NAMPT (NAMPT enzymatic assay), 28.2 nM.

On to `O=C(NCc1ccc(S(=O)(=O)c2ccc(Cl)cc2)cc1)c1cc2ccncc2o1` [N-({4-[(4-chlorobenzene)sulfonyl]phenyl}methyl)furo[2,3-c]pyridine-2-carboxamide], for which the IC50 in the test with A2780 cells (Homo sapiens, A2780, 72 h, SRB) amounted to 14.2 nM; on NAMPT (NAMPT enzymatic reaction), 4.9 nM.

With `O=C(NCc1ccc(S(=O)(=O)c2ccc(C(F)(F)F)cn2)cc1)c1ccc2nccn2c1` [N-({4-[5-(trifluoromethyl)pyridine-2-sulfonyl]phenyl}methyl)imidazo[1,2-a]pyridine-6-carboxamide], the IC50 in the test with A2780 cells (Homo sapiens, A2780, 72 h, SRB) came to 32.6 nM; on NAMPT (NAMPT enzymatic assay), 46.3 nM.

Turning to `CC(C)Oc1cccc(S(=O)(=O)c2ccc(CNC(=O)c3cnc4[nH]ncc4c3)cc2)c1`, the IC50 in the test with A2780 cells (Homo sapiens, A2780, 72 h, SRB) was determined as 24.5 nM; on NAMPT (NAMPT enzymatic assay), 46.1 nM.

On to `O=C(NCc1ccc(S(=O)(=O)c2ccccc2OC(F)(F)F)cc1)c1cnc2nccn2c1` [N-[(4-{[2-(trifluoromethoxy)benzene]sulfonyl}phenyl)methyl]imidazo[1,2-a]pyrimidine-6-carboxamide], for which the IC50 was 11.5 nM with A2780 cells (Homo sapiens, A2780, 72 h, SRB) and 2.4 nM at NAMPT (NAMPT enzymatic assay).

As for `O=C(NCc1ccc(S(=O)(=O)c2ccccc2)cc1)c1ccc2ncccc2c1` [N-{[4-(benzenesulfonyl)phenyl]methyl}quinoline-6-carboxamide], the IC50 was over 10000 nM with A2780 cells (Homo sapiens, A2780, 72 h, SRB) and 108 nM on NAMPT (NAMPT enzymatic assay).

For the compound `O=C(NCc1ccc(S(=O)(=O)c2cc(Cl)cc(C(F)(F)F)c2)cc1)c1cnc2nccn2c1`, the IC50 in the test on A2780 cells (Homo sapiens, A2780, 72 h, SRB) turned out to be 0.4 nM; at NAMPT (NAMPT enzymatic assay) it was 4.4 nM.

On to `CCCCc1ccc(S(=O)(=O)c2ccc(CNC(=O)c3cnc4nccn4c3)cc2)cc1`, for which the concentration for half-maximal inhibition (IC50) in the test with A2780 cells (Homo sapiens, A2780, 72 h, SRB) was 10.7 nM; on NAMPT (NAMPT enzymatic reaction) it was 5.3 nM.

For the compound `Cn1cc(S(=O)(=O)c2ccc(CNC(=O)c3cc4cnccc4[nH]3)cc2)cn1` [N-{[4-(1-methyl-1H-pyrazole-4-sulfonyl)phenyl]methyl}-1H-pyrrolo[3,2-c]pyridine-2-carboxamide], the half-maximal inhibitory concentration (IC50) in the test on A2780 cells (setting [1]) was found to be 123 nM; on NAMPT (NAMPT enzymatic reaction), 48 nM.

In the case of `Cc1nc(C)c(S(=O)(=O)c2ccc(CNC(=O)c3cc4ccncc4o3)cc2)s1` [N-{[4-(dimethyl-1,3-thiazole-5-sulfonyl)phenyl]methyl}furo[2,3-c]pyridine-2-carboxamide], the IC50 was 10.3 nM in the test on A2780 cells (Homo sapiens, A2780, 72 h, SRB) and 8.3 nM on NAMPT (NAMPT enzymatic assay).

For `CCc1cccc(S(=O)(=O)c2ccc(CNC(=O)c3cc4ccncc4o3)cc2)c1` [N-({4-[(3-ethylbenzene)sulfonyl]phenyl}methyl)furo[2,3-c]pyridine-2-carboxamide], the concentration for half-maximal inhibition (IC50) with A2780 cells (Homo sapiens, A2780, 72 h, SRB) was 6.5 nM; at NAMPT (NAMPT enzymatic reaction), 8.7 nM.

In the case of `O=C(NCc1ccc(S(=O)(=O)c2ccc(C(F)(F)F)cc2)cc1)c1cc2ccncc2o1`, the IC50 came to 19.8 nM with A2780 cells (Homo sapiens, A2780, 72 h, SRB) and 8.7 nM on NAMPT (NAMPT enzymatic assay).

On to `Cc1cc(Cl)cc(S(=O)(=O)c2ccc(CNC(=O)c3cc4ccncc4s3)cc2)c1` [N-({4-[(3-chloro-5-methylbenzene)sulfonyl]phenyl}methyl)thieno[2,3-c]pyridine-2-carboxamide], for which the concentration for half-maximal inhibition (IC50) with A2780 cells (Homo sapiens, A2780, 72 h, SRB) was 1.6 nM; at NAMPT (NAMPT enzymatic reaction) it was 4.5 nM.

As to `CCOc1cccc(S(=O)(=O)c2ccc(CNC(=O)c3ccc4nccn4c3)cc2)c1F`, the half-maximal inhibitory concentration (IC50) stood at 6.2 nM with A2780 cells (Homo sapiens, A2780, 72 h, SRB) and 5 nM on NAMPT (NAMPT enzymatic reaction).

In the case of `O=C(NCc1ccc(S(=O)(=O)c2ccc(-c3ccccc3)cc2)cc1)c1ccc2ncsc2c1` [N-({4-[(4-phenylbenzene)sulfonyl]phenyl}methyl)-1,3-benzothiazole-6-carboxamide], the IC50 with A2780 cells (Homo sapiens, A2780, 72 h, SRB) is 100 to 1000 nM; on NAMPT (NAMPT enzymatic reaction) it was 20.7 nM.

Turning to `COc1ccc(OC)c(S(=O)(=O)c2ccc(CNC(=O)c3cc4ccncc4o3)cc2)c1`, the half-maximal inhibitory concentration (IC50) in the test on A2780 cells (Homo sapiens, A2780, 72 h, SRB) turned out to be 6.3 nM; on NAMPT (NAMPT enzymatic reaction) it was 11.4 nM.

Turning to `O=C(NCc1ccc(S(=O)(=O)c2ccccc2Cl)cc1)c1cnc2[nH]ncc2c1` [N-({4-[(2-chlorobenzene)sulfonyl]phenyl}methyl)-1H-pyrazolo[3,4-b]pyridine-5-carboxamide], the IC50 is 100 to 1000 nM with A2780 cells (Homo sapiens, A2780, 72 h, SRB) and 92.5 nM at NAMPT (NAMPT enzymatic reaction).

For `O=C(NCc1ccc(S(=O)(=O)c2ccc(F)c(OCC(F)(F)F)c2)cc1)c1cc2cnccc2[nH]1`, the IC50 was 6.5 nM with A2780 cells (Homo sapiens, A2780, 72 h, SRB) and 10.3 nM on NAMPT (NAMPT enzymatic assay).

With `O=C(NCc1ccc(S(=O)(=O)c2cccc(-n3cccn3)c2)cc1)c1cc2ccncc2s1` [N-[(4-{[3-(1H-pyrazol-1-yl)benzene]sulfonyl}phenyl)methyl]thieno[2,3-c]pyridine-2-carboxamide], the IC50 is 0.1 nM with A2780 cells (Homo sapiens, A2780, 72 h, SRB) and 1.5 nM at NAMPT (NAMPT enzymatic assay).

`Cn1ncc2cccc(S(=O)(=O)c3ccc(CNC(=O)c4ccc5nccn5c4)cc3)c21` [N-{[4-(1-methyl-1H-indazole-7-sulfonyl)phenyl]methyl}imidazo[1,2-a]pyridine-6-carboxamide]: the IC50 in the test with A2780 cells (Homo sapiens, A2780, 72 h, SRB) amounted to 27.5 nM; on NAMPT (NAMPT enzymatic assay) it was 28.7 nM.

`Cc1ccc(S(=O)(=O)c2ccc(CNC(=O)c3cnc4[nH]ncc4c3)cc2)c(C)c1` [N-({4-[(2,4-dimethylbenzene)sulfonyl]phenyl}methyl)-1H-pyrazolo[3,4-b]pyridine-5-carboxamide]: the IC50 worked out at 71.6 nM in the test on A2780 cells (Homo sapiens, A2780, 72 h, SRB) and 61.2 nM at NAMPT (NAMPT enzymatic reaction).

For `CCc1cccc(S(=O)(=O)c2ccc(CNC(=O)c3cnc4[nH]ncc4c3)cc2)c1`, the concentration for half-maximal inhibition (IC50) with A2780 cells (Homo sapiens, A2780, 72 h, SRB) worked out at 7.1 nM; on NAMPT (NAMPT enzymatic reaction) it was 7 nM.

For the compound `Cc1ccc(S(=O)(=O)c2ccc(CNC(=O)c3cc4ccncc4s3)cc2)cc1C` [N-({4-[(3,4-dimethylbenzene)sulfonyl]phenyl}methyl)thieno[2,3-c]pyridine-2-carboxamide], the concentration for half-maximal inhibition (IC50) with A2780 cells (setting [1]) is 2.3 nM; on NAMPT (NAMPT enzymatic reaction), 6 nM.

(Values after patent US12336981B2, “Compounds and compositions for the inhibition of NAMPT” (Valo Health, Inc., priority 2010, dated 2025).)
